Paper PMC7814170 (Molecular Biotechnology, 2021)

Molecular target: SARS-CoV-2 main protease 3CLpro (Severe acute respiratory syndrome coronavirus 2, UniProt P0DTD1)
Test: cell-based
Settings: read-out: inhibition to viral protease (reduction in GFP fluorescent activity)

| SMILES | inhibition at 40 µM [%] |
| --- | --- |
| O=C1c2ccccc2NC(c2cc(Cl)ccc2O)N1N=Cc1cc(Cl)ccc1O (stereo not shown) [QZ2, 3-[(5-Chloro-2-hydroxy-benzylidene)-amino]-2-(5-chloro-2-hydroxy-phenyl)-2,3-dihydroquinazoline-4(1H)-one] | 20 to 50 |
| O=C1c2ccccc2NC(c2cc(Br)ccc2O)N1N=Cc1cc(Br)ccc1O (stereo not shown) [QZ1, 3-(5-Bromo-2-hydroxybenzylideneamino)-2-(5-bromo-2-hydroxyphenyl)-2,3-dihydroquinazoline-4 (1H)-one] | 20 to 50 |
| CC(C)(C)NC(=O)N[C@H](C(=O)N1C[C@H]2[C@@H]([C@H]1C(=O)NC(CC1CCC1)C(=O)C(N)=O)C2(C)C)C(C)(C)C (stereo partly shown) [Boceprevir, boceprevir, reference compound] | 80 |
| COc1ccc(O)c(C=NN2C(=O)c3ccccc3NC2c2cc(OC)ccc2O)c1 (stereo not shown) [QZ4, 3-(5-Methoxy-2-hydroxybenzylideneamino)-2(5-methoxy-2-hydroxyphenyl)-2,3-dihydroquinazoline-4(1H)-one] | ~80 |
| O=C1c2ccccc2NC(c2cc([N+](=O)[O-])ccc2O)N1N=Cc1cc([N+](=O)[O-])ccc1O (stereo not shown) [QZ5, 3-(5-Nitro-2-hydroxybenzylideneamino)-2(5-nitro-2-hydroxyphenyl)-2,3-dihydroquinazoline-4(1H)-one] | 20 to 50 |
| COc1cc(Br)cc(C=NN2C(=O)c3ccccc3NC2c2cc(Br)cc(OC)c2O)c1O (stereo not shown) [QZ3, 3-(5-Bromo-2-hydroxy-3-methoxybenzylideneamino)-2-(5-bromo-2-hydroxy-3-methoxyphenyl)-2,3-dihydroquinazoline-4(1H)-one] | 20 to 50 |

System: SARS-CoV-2 main protease
Test: not given
Settings: read-out: EC50 measured by FRET-based enzymatic assay; cited from earlier work

| SMILES | EC50 [µM] |
| --- | --- |
| CC(C)(C)NC(=O)N[C@H](C(=O)N1C[C@H]2[C@@H]([C@H]1C(=O)NC(CC1CCC1)C(=O)C(N)=O)C2(C)C)C(C)(C)C (stereo partly shown) [Boceprevir, boceprevir, reference compound] | […] |
